Experimental data from patent publication US20230110595A1, “MIXTURE OF PYRETHROIDS AND MILBEMYCINS AND USES THEREOF” (Valent BioSciences LLC, priority 2021, published 2023).

Assays:
Format in all cases: in vivo
[1] = system: Permethrin Susceptible C. quinquefasciatus; experiment: Wind tunnel bioassay, adult mosquitoes, Example 2 (September 2021)
Protocol: (§1) In this bioassay, a wind tunnel bioassay was performed in the United States of America in September 2021. Culex quinquefasciatus that were known to be resistant and susceptible to permethrin were used in the studies. The following solutions were applied to adult C. quinquefasciatus mosquitoes: 1) 0.5% moxidectin; 2) 0.5% pyrethrum; and 3) a mixture of 0.5% pyrethrum and 0.5% moxidectin.
(§2) Percent mortality was recorded at 15 minutes (“Min”), 1 hour (“Hr”), 24 hours and 48 hours. OCE:ECE ratios were calculated as in Example 1, above.

[2] = system: Permethrin Resistant C. quinquefasciatus; experiment: as above
Protocol: as §1, §2

[3] = system: Permethrin Susceptible C. quinquefasciatus; experiment: Wind tunnel bioassay, adult mosquitoes, Example 1 (May 2021)
Protocol: as §1, with “in May” for “in September”, “1) 1.5%” for “1) 0.5%”, “2) 5% permethrin; 3) 2.5%” for “2) 0.5%”, “pyrethrum; 4)” for “pyrethrum; and 3)”, “of 5% permethrin and 1.5% moxidectin; and 5) a mixture of 2.5%” for “of 0.5%”, “and 1.5%” for “and 0.5%”
(§3) To determine if the mixtures provided unexpected results, the observed combined efficacy (“OCE”) was divided by the expected combined efficacy (“ECE”) wherein the expected ECE is calculated by the Abbott method: […]
(§4) wherein ECE is the expected combined efficacy and in which A and B are the percent control given by the single active ingredients. If the ratio between the OCE of the mixture and the ECE of the mixture is greater than 1, then greater than expected interactions are present in the mixture. (Gisi, Synergistic Interaction of Fungicides in Mixtures, The American Phytopathological Society, 86:11, 1273-1279, 1996). Percent mortality was recorded at 15 minutes (“Min”), 1 hour (“Hr”), 24 hours and 48 hours.

[4] = system: Permethrin Resistant C. quinquefasciatus; experiment: as above
Protocol: as §1, with “in May” for “in September”, “1) 1.5%” for “1) 0.5%”, “2) 5% permethrin; 3) 2.5%” for “2) 0.5%”, “pyrethrum; 4)” for “pyrethrum; and 3)”, “of 5% permethrin and 1.5% moxidectin; and 5) a mixture of 2.5%” for “of 0.5%”, “and 1.5%” for “and 0.5%”
as §3, §4

## CO/N=C1\C[C@]2(C[C@@H]3C[C@@H](C/C=C(\C)C[C@@H](C)/C=C/C=C4\CO[C@@H]5[C@H](O)C(C)=C[C@@H](C(=O)O3)[C@]45O)O2)O[C@H](/C(C)=C/C(C)C)[C@H]1C [0.5% Moxidectin, moxidectin]
[1]; 1 Hr
  % Mortality: 26.25%
[1]; 15 Min
  % Mortality: 1.25%
[1]; 24 Hr
  % Mortality: 95.00%
[1]; 48 Hr
  % Mortality: 95.00%
[2]; 1 Hr
  % Mortality: 0.00%
[2]; 15 Min
  % Mortality: 0.00%
[2]; 24 Hr
  % Mortality: 11.25%
[2]; 48 Hr
  % Mortality: 8.75%

## CO/N=C1\C[C@]2(C[C@@H]3C[C@@H](C/C=C(\C)C[C@@H](C)/C=C/C=C4\CO[C@@H]5[C@H](O)C(C)=C[C@@H](C(=O)O3)[C@]45O)O2)O[C@H](/C(C)=C/C(C)C)[C@H]1C [1.5% Moxidectin, moxidectin]
[3]; 1 Hr
  % Mortality: 67.5%
[3]; 15 Min
  % Mortality: 53.75%
[3]; 24 Hr
  % Mortality: 92.5%
[3]; 48 Hr
  % Mortality: 92.5%
[4]; 1 Hr
  % Mortality: 0%
[4]; 15 Min
  % Mortality: 15%
[4]; 24 Hr
  % Mortality: 68.75%
[4]; 48 Hr
  % Mortality: 50%

## CC1(C)C(C=C(Cl)Cl)C1C(=O)OCc1cccc(Oc2ccccc2)c1 (stereo not shown) [5% Permethrin, permethrin]
[3]; 1 Hr
  % Mortality: 100%
[3]; 15 Min
  % Mortality: 100%
[3]; 24 Hr
  % Mortality: 100%
[3]; 48 Hr
  % Mortality: 100%
[3]; span over 15 minutes to 48 hours
  control: ~100%
[4]; 1 Hr
  % Mortality: 81.25%
[4]; 15 Min
  % Mortality: 35%
[4]; 24 Hr
  % Mortality: 97.5%
[4]; 48 Hr
  % Mortality: 96.25%
